Assay results as given in patent US9102617B2, “Antimicrobial agents” (Rutgers, The State University of New Jersey, priority 2010, dated 2015).
In brackets after ≈: the same amount, converted by molar mass.

System: methicillin-resistant Staphylococcus aureus (MRSA)
Test: Planktonic antibacterial broth microdilution assay (Test C), MIC vs MRSA
Assay type: cell-based
Conditions: broth microdilution, 37° C., growth read after 24 to 48 hours at OD 600 nm, read-out: MIC vs MRSA
Description: (§1) Test C. Planktonic (Free-Living) Antibacterial Assay.
(§2) Planktonic antibacterial activity can be determined using a broth microdilution assay in which log-phase bacteria are grown at 37° C. in appropriate medium containing two-fold serial dilutions of a compound to yield a final concentration ranging from 256 to 0.1 μg/ml. For determination of minimal inhibitory concentration (MIC) values, bacterial growth is monitored after 24 to 48 hours by measuring optical density at 600 nm. […] The minimal inhibitory concentration against methicillin-sensitive Staphylococcus aureus (MSSA) for each of the following representative compounds of the invention was determined to be less than 32 μg/ml.
Representative compounds of the invention were also tested against methicillin-resistant Staphylococcus aureus, vancomycin-resistant Enterococcus faecalis and Enterococcus faecium (VRE), vancomycin-sensitive Enterococcus faecalis and Enterococcus faecium (VSE).

`CN(C)CCNCc1ccccc1-c1ccc2c(-c3ccc(C(C)(C)C)cc3)cccc2c1` [Example 59] and `CC(C)(C)c1ccc(-c2cccc3cc(-c4ccccc4CNCCN)ccc23)cc1` [Example 62] cannot be ordered by MIC: no more than 8 µg/mL for the first, no more than 8 µg/mL for the second.

`CC(C)(C)c1ccc(-c2cccc3c(CC(=N)N)cccc23)cc1` [Example 56] and `CC(C)(C)c1ccc(-c2cccc3c(CCN)cccc23)cc1` [Example 36] cannot be ordered by MIC: no more than 8 µg/mL for the first, no more than 8 µg/mL for the second.

First: C[n+]1cc(-c2cc(-c3ccccc3)cc(-c3ccccc3)c2)cc2ccccc21.[I-] [Example 35]
Second: C[n+]1cccc2ccc(-c3ccc(-c4ccccc4)cc3)cc21.[I-] [Example 116]
The MIC of the first is lower: no more than 8 µg/mL for the first, 16 µg/mL for the second.

`CNCc1ccccc1-c1ccc2c(-c3ccc(C(C)(C)C)cc3)cccc2c1` [Example 61] gave an MIC of no more than 8 µg/mL.

System: methicillin-sensitive Staphylococcus aureus (MSSA)
Test: Planktonic antibacterial broth microdilution assay (Test C), MIC vs MSSA
Assay type: cell-based
Conditions: 37° C., growth read after 24 to 48 hours at OD 600 nm
Description: as §1, §2

`COc1cc2cc(-c3cc(OC)c(OC)c(-c4ccc(C(C)(C)C)cc4)c3)c[n+](C)c2cc1OC.[I-]` [Example 16] and `COc1cc(-c2cc3ccc(OC)c(OC)c3[n+](C)c2)cc(-c2ccc(C(C)(C)C)cc2)c1OC.[I-]` [Example 30] cannot be ordered by MIC: no more than 8 µg/mL for the first, no more than 8 µg/mL for the second.

Compared with `CNCc1cc(C(=O)O)ccc1-c1ccc2c(-c3ccc(C(C)(C)C)cc3)cccc2c1.Cl` [Example 87], `CC(C)(C)c1ccc(-c2cccc3cc(-c4ccc(C(=O)O)cc4CN)ccc23)cc1.Cl` [Example 88] is higher in MIC: no more than 8 µg/mL for the first, greater than 64 µg/mL for the second.

`CC(C)(C)c1ccc(-c2cccc(-c3cccc4cc(-c5cccc([N+](C)(C)C)c5)ccc34)c2)cc1.[I-]` [Example 78] and `C[N+](C)(C)c1cccc(-c2ccc3c(-c4cccc(-c5ccc(C(F)(F)F)cc5)c4)cccc3c2)c1.[I-]` [Example 80] cannot be ordered by MIC: no more than 8 µg/mL for the first, no more than 8 µg/mL for the second.

`C[N+](C)(C)Cc1cccc(-c2ccc3c(-c4cccc(-c5ccccc5)c4)cccc3c2)c1.[I-]` [Example 72] and `C[N+](C)(C)c1cccc(-c2ccc3c(-c4cccc(-c5ccccc5)c4)cccc3c2)c1.[I-]` [Example 67] cannot be ordered by MIC: no more than 8 µg/mL for the first, no more than 8 µg/mL for the second.

`C[N+](C)(C)c1ccc(-c2ccc3c(-c4ccc(-c5ccccc5)cc4)cccc3c2)cc1.[I-]` [Example 95] and `C[N+](C)(C)c1ccc(-c2ccc3c(-c4cccc(-c5ccccc5)c4)cccc3c2)cc1.[I-]` [Example 69] cannot be ordered by MIC: no more than 8 µg/mL for the first, no more than 8 µg/mL for the second.

`COc1ccc(-c2ccc3c(-c4ccc(C(C)(C)C)cc4)cccc3c2CNC(=N)N)c(OC)c1OC` [Example 58] and `COc1ccc(CNC(=N)N)c(-c2ccc3c(-c4ccc(C(C)(C)C)cc4)cccc3c2)c1OC` [Example 102] cannot be ordered by MIC: no more than 8 µg/mL for the first, no more than 8 µg/mL for the second.

Compared with `CN(C)Cc1cc(C(=O)O)ccc1-c1ccc2c(-c3ccc(C(C)(C)C)cc3)cccc2c1.Cl` [Example 85], `CN(C)Cc1ccccc1-c1ccc2c(-c3ccc(C(C)(C)C)cc3)cccc2c1` [Example 60, (2-(1-(4-t-butylphenyl)naphthalen-6-yl)phenyl)-N,N-dimethylmethanamine] is higher in MIC: no more than 8 µg/mL for the first, 32 µg/mL (≈ 81.3 µM) for the second.

`CC(C)(C)c1ccc(-c2ccc(CN=C(N)N)c3ccccc23)cc1` [Example 40] and `CC(C)(C)c1ccc(-c2ccc(CCN=C(N)N)c3ccccc23)cc1` [Example 39] cannot be ordered by MIC: no more than 8 µg/mL for the first, no more than 8 µg/mL for the second.

`C[n+]1cccc2ccccc21.[I-]` [Comparative Example A, reference compound] and `C[n+]1c(-c2ccccc2)ccc2ccccc21.[I-]` [Comparative Example B, reference compound] cannot be ordered by MIC: greater than 64 µg/mL for the first, greater than 64 µg/mL for the second.

`COC(=O)c1ccc(-c2ccc3c(-c4ccc(C(C)(C)C)cc4)cccc3c2)c(CNC(=N)N)c1` [Example 101] and `CNCc1cc(C(=O)OC)ccc1-c1ccc2c(-c3ccc(C(C)(C)C)cc3)cccc2c1` [Example 86, methyl 4-(1-(4-t-butylphenyl)naphthalen-6-yl)-3-((methylamino)methyl)benzoate] cannot be ordered by MIC: no more than 8 µg/mL for the first, no more than 8 µg/mL for the second.

Compared with `COc1cc(-c2cc3ccccc3[n+](C)c2)cc(-c2cccc(-c3ccc(F)cc3)c2)c1OC.[I-]` [Example 6], `COc1cc(-c2cc3ccccc3[n+](C)c2)cc(-c2ccc(F)cc2)c1OC.[I-]` [Example 4] is higher in MIC: no more than 8 µg/mL for the first, 16 µg/mL for the second.

`N=C(N)NCc1ccccc1-c1ccc2c(-c3cccc(-c4ccccc4)c3)cccc2c1` [Example 105] and `CN(C)Cc1cccc(-c2ccc3c(-c4cccc(-c5ccccc5)c4)cccc3c2)c1` [Example 71] cannot be ordered by MIC: no more than 8 µg/mL for the first, no more than 8 µg/mL for the second.

`CN(C)CCNCc1ccccc1-c1ccc2c(-c3ccc(C(C)(C)C)cc3)cccc2c1` [Example 59] and `CC(C)(C)c1ccc(-c2cccc3cc(-c4ccccc4CNCCN)ccc23)cc1` [Example 62] cannot be ordered by MIC: no more than 8 µg/mL for the first, no more than 8 µg/mL for the second.

`C[n+]1cc(-c2cc(F)c(F)c(-c3ccc(-c4ccccc4)cc3)c2)cc2ccccc21.[I-]` [Example 33] and `COc1cc(-c2cc3ccccc3[n+](C)c2)cc(-c2ccc(-c3ccccc3)cc2)c1OC.[I-]` [Example 2] cannot be ordered by MIC: no more than 8 µg/mL for the first, no more than 8 µg/mL for the second.

`C[N+](C)(C)c1ccc(-c2ccc3c(-c4ccc(F)cc4)cccc3c2)cc1.[I-]` [Example 76] and `C[N+](C)(C)c1cccc(-c2ccc3c(-c4ccc(F)cc4)cccc3c2)c1.[I-]` [Example 74] cannot be ordered by MIC: no more than 8 µg/mL for the first, no more than 8 µg/mL for the second.

`Cc1cc(C(F)(F)F)ccc1-c1cccc2c(CN=C(N)N)cccc12` [Example 47] and `COc1cc(C(F)(F)F)ccc1-c1cccc2c(CN=C(N)N)cccc12` [Example 43] cannot be ordered by MIC: no more than 8 µg/mL for the first, no more than 8 µg/mL for the second.

`N=C(N)NCc1cccc2c(-c3ccc(Cl)cc3)cccc12` [Example 52] and `N=C(N)NCc1cccc2c(-c3ccc(Br)cc3)cccc12` [Example 51, 1-((5-(4-bromophenyl)naphthalen-1-yl)methyl)guanidine] cannot be ordered by MIC: no more than 8 µg/mL for the first, no more than 8 µg/mL for the second.

`CC(C)(C)c1ccc(-c2cccc3c(CC(=N)N)cccc23)cc1` [Example 56] and `CC(C)(C)c1ccc(-c2cccc3c(CCN)cccc23)cc1` [Example 36] cannot be ordered by MIC: no more than 8 µg/mL for the first, no more than 8 µg/mL for the second.

`COc1cc(-c2cc3cc4c(cc3[n+](C)c2)OCO4)cc(-c2ccc(C(C)(C)C)cc2)c1OC.[I-]` [Example 26a] and `COc1cc(-c2cc3cc4c(cc3[n+](C(C)C)c2)OCO4)cc(-c2ccc(-c3ccccc3)cc2)c1OC.[I-]` [Example 25] cannot be ordered by MIC: no more than 8 µg/mL for the first, no more than 8 µg/mL for the second.

`C[n+]1cc(-c2cc(-c3ccccc3)cc(-c3ccccc3)c2)cc2ccccc21.[I-]` [Example 35] and `COc1cc(-c2cc3ccccc3[n+](C)c2)cc(-c2cc(-c3ccc(F)cc3)cc(-c3ccc(F)cc3)c2)c1OC.[I-]` [Example 8] cannot be ordered by MIC: no more than 8 µg/mL for the first, no more than 8 µg/mL for the second.

First: C[n+]1cccc2ccc(-c3ccc(-c4ccccc4)cc3)cc21.[I-] [Example 116]
Second: C[n+]1cccc2cccc(-c3ccc(-c4ccccc4)cc3)c21.[I-] [Example 118]
The MIC of the first is lower: no more than 8 µg/mL for the first, 16 µg/mL for the second.

`COc1cc(C(F)(F)F)ccc1-c1cccc2c(CCN)cccc12` [Example 44, 2-(5-(2-Methoxy-4-(trifluoromethyl)phenyl)naphthalen-1-yl)ethanamine] and `COc1cc(C(F)(F)F)ccc1-c1cccc2c(CCN=C(N)N)cccc12` [Example 45] cannot be ordered by MIC: no more than 8 µg/mL for the first, no more than 8 µg/mL for the second.

`C[n+]1cc(-c2ccc(-c3ccccc3)cc2)c2ccccc2c1.[I-]` [Example 107] and `C[n+]1cccc2c(-c3ccc(-c4ccccc4)cc3)cccc21.[I-]` [Example 122] cannot be ordered by MIC: no more than 8 µg/mL for the first, no more than 8 µg/mL for the second.

`COc1cc(CC(=N)N)c(-c2ccc3c(-c4ccc(C(C)(C)C)cc4)cccc3c2)cc1OC` [Example 103] and `COc1c(CCN)ccc(-c2ccc3c(-c4ccc(C(C)(C)C)cc4)cccc3c2)c1OC.Cl` [Example 106] cannot be ordered by MIC: no more than 8 µg/mL for the first, no more than 8 µg/mL for the second.

`CCC[n+]1cc(-c2cc(OC)c(OC)c(-c3ccc(-c4ccccc4)cc3)c2)cc2cc(OC)c(OC)cc21.[I-]` [Example 14] and `COc1cc2cc(-c3cc(OC)c(OC)c(-c4ccc(-c5ccccc5)cc4)c3)c[n+](C)c2cc1OC.[I-]` [Example 13] cannot be ordered by MIC: no more than 8 µg/mL for the first, no more than 8 µg/mL for the second.

`CC(C)(C)c1ccc(-c2ccc(CCN)c3ccccc23)cc1` [Example 38, 2-(4-(4-(t-butyl)phenyl)naphthalen-1-yl)ethanamine] and `N=C(N)NCCc1cccc2c(-c3ccc(C(F)(F)F)cc3)cccc12` [Example 55] cannot be ordered by MIC: no more than 8 µg/mL for the first, no more than 8 µg/mL for the second.

`C[N+](C)(C)c1cccc(-c2ccc3c(-c4ccc(C(F)(F)F)cc4)cccc3c2)c1.[I-]` [Example 97] and `CC(C)(C)c1ccc(-c2cccc3cc(-c4cccc([N+](C)(C)C)c4)ccc23)cc1.[I-]` [Example 65] cannot be ordered by MIC: no more than 8 µg/mL for the first, no more than 8 µg/mL for the second.

`COc1cc(-c2cc3ccccc3nc2CN)cc(-c2ccc(C(C)(C)C)cc2)c1OC` [Example 31] and `COC(=O)c1ccc(-c2ccc3c(-c4ccc(C(C)(C)C)cc4)cccc3c2)c(CN)c1` [Example 89, methyl 4-(1-(4-t-butylphenyl)naphthalen-6-yl)-3-(aminomethyl)benzoate] cannot be ordered by MIC: no more than 8 µg/mL for the first, no more than 8 µg/mL for the second.

`COc1cc2cc(-c3cc(OC)c(OC)c(-c4ccc(C5CCCCC5)cc4)c3)c[n+](C)c2cc1OC.[I-]` [Example 21] and `CCC[n+]1cc(-c2cc(OC)c(OC)c(-c3ccc(C4CCCCC4)cc3)c2)cc2cc(OC)c(OC)cc21.[I-]` [Example 22] cannot be ordered by MIC: no more than 8 µg/mL for the first, no more than 8 µg/mL for the second.

`COC(=O)c1ccc(-c2ccc3c(-c4ccc(C(C)(C)C)cc4)cccc3c2)c(C[N+](C)(C)C)c1.[I-]` [Example 84] and `CC(C)(C)c1ccc(-c2cccc3cc(-c4ccc([N+](C)(C)C)cc4)ccc23)cc1.[I-]` [Example 100] cannot be ordered by MIC: no more than 8 µg/mL for the first, no more than 8 µg/mL for the second.

`CNCc1ccccc1-c1ccc2c(-c3ccc(C(C)(C)C)cc3)cccc2c1` [Example 61] and `C[N+](C)(C)c1cccc(-c2ccc3c(-c4ccc(-c5ccccc5)cc4)cccc3c2)c1.[I-]` [Example 93] cannot be ordered by MIC: no more than 8 µg/mL for the first, no more than 8 µg/mL for the second.

`NC(N)=NCc1cccc2c(-c3ccc(C4CC4)cc3)cccc12` [Example 46] and `N=C(N)NCc1cccc2c(-c3ccc(C(F)(F)F)cc3)cccc12` [Example 53] cannot be ordered by MIC: no more than 8 µg/mL for the first, no more than 8 µg/mL for the second.

`COc1cc(-c2cc3ccc(OC)c(OC)c3[n+](C)c2)cc(-c2cccc(C(C)(C)C)c2)c1OC.[I-]` [Example 28] and `COc1cc2c(-c3ccc(-c4ccccc4)cc3)ccc([N+](C)(C)C)c2cc1OC.[I-]` [Example 50] cannot be ordered by MIC: no more than 8 µg/mL for the first, no more than 8 µg/mL for the second.

`C[N+](C)(C)c1cccc(-c2ccc3c(-c4cc(-c5ccc(F)cc5)cc(-c5ccc(F)cc5)c4)cccc3c2)c1.[I-]` [Example 82] gave an MIC of no more than 8 µg/mL.
